Reference: PubChem BioAssay AID256 (DTP/NCI, 2004)
Inconclusive results and toxic doses are left out. The calls were made as follows: active = survival T/C of 150% or more; inactive = T/C below 125% in these data.

Test system: CD2F1 mice, L1210 leukemia ip, survival T/C
Experiment: NCI In Vivo Anticancer Drug Screen. Data for tumor model L1210 Leukemia (intraperitoneal) in CD2F1 (CDF1) mice
Details: higher = longer survival
Method in brief: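 Compound-dosed mice with transplantable tumor versus matched vehicle controls; endpoint ratio T/C reported.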

[1] = endpoint: mean survival time, dose: 12.5 mg/kg/injection, schedule: Q04DX003 (ip), vehicle: saline with Tween-80
[2] = endpoint: mean survival time, dose: 100.0 mg/kg/injection, schedule: Q04DX002 (ip), vehicle: saline with Tween-80
[3] = endpoint: mean survival time, dose: 400.0 mg/kg/injection, schedule: Q04DX002 (ip), vehicle: saline with Tween-80
[4] = endpoint: mean survival time, dose: 100.0 mg/kg/injection, schedule: Q01DX009 (ip), vehicle: saline with Tween-80
[5] = endpoint: mean survival time, dose: 200.0 mg/kg/injection, schedule: Q01DX009 (ip), vehicle: saline with Tween-80
[6] = endpoint: mean survival time, dose: 400.0 mg/kg/injection, schedule: Q01DX009 (ip), vehicle: saline with Tween-80
[7] = endpoint: mean survival time, dose: 100.0 mg/kg/injection, schedule: Q04DX003 (ip), vehicle: saline with Tween-80
[8] = endpoint: mean survival time, dose: 200.0 mg/kg/injection, schedule: Q04DX003 (ip), vehicle: saline with Tween-80
[9] = endpoint: mean survival time, dose: 400.0 mg/kg/injection, schedule: Q04DX003 (ip), vehicle: saline with Tween-80
[10] = endpoint: mean survival time, dose: 200.0 mg/kg/injection, schedule: Q04DX002 (ip), vehicle: saline with Tween-80
[11] = endpoint: mean survival time, dose: 12.5 mg/kg/injection, schedule: Q01DX009 (ip), vehicle: saline with Tween-80
[12] = endpoint: mean survival time, dose: 25.0 mg/kg/injection, schedule: Q01DX009 (ip), vehicle: saline with Tween-80
[13] = endpoint: mean survival time, dose: 6.25 mg/kg/injection, schedule: Q01DX009 (ip), vehicle: saline with Tween-80

Measured: T/C

Nc1ccc(NC(=O)Nc2ccc(N)cc2)cc1
inactive: endpoint: mean survival time, dose: 3.0 mg/kg/injection, schedule: Q01DX009 (ip), vehicle: saline sonified 96 % of control | endpoint: mean survival time, dose: 6.0 mg/kg/injection, schedule: Q01DX009 (ip), vehicle: saline sonified 94 % of control | endpoint: mean survival time, dose: 12.0 mg/kg/injection, schedule: Q01DX009 (ip), vehicle: saline sonified 96 % of control | [1] 104 % of control

O=[N+]([O-])c1ccc(N/N=C\c2ccc3ccccc3n2)cc1
inactive: endpoint: mean survival time, dose: 100.0 mg/kg/injection, schedule: Q04DX003 (ip), vehicle: saline 106 % of control | endpoint: mean survival time, dose: 200.0 mg/kg/injection, schedule: Q04DX003 (ip), vehicle: saline 109 % of control | endpoint: mean survival time, dose: 400.0 mg/kg/injection, schedule: Q04DX003 (ip), vehicle: saline 101 % of control

O=C(Nc1ccc(Cl)c(Cl)c1)c1ccc(Cl)c(Cl)c1
inactive: [2] 95 % of control | [3] 91 % of control

CCOC(=O)C(Cc1ccc(C)cc1)P(=O)(OCC)OCC (stereo not drawn)
inactive: endpoint: mean survival time, dose: 100.0 mg/kg/injection, schedule: Q01DX001 (ip), vehicle: saline 102 % of control | endpoint: mean survival time, dose: 200.0 mg/kg/injection, schedule: Q01DX001 (ip), vehicle: saline 98 % of control | endpoint: mean survival time, dose: 400.0 mg/kg/injection, schedule: Q01DX001 (ip), vehicle: saline 102 % of control

COc1ccc(CC(=O)O)cc1OC (tested in a mixture with another compound)
inactive: [4] 96 % of control | endpoint: mean survival time, dose: 100.0 mg/kg/injection, schedule: Q04DX003 (ip), vehicle: saline sonified 101 % of control | [5] 98 % of control | endpoint: mean survival time, dose: 200.0 mg/kg/injection, schedule: Q04DX003 (ip), vehicle: saline sonified 101 % of control | [6] 102 % of control | endpoint: mean survival time, dose: 400.0 mg/kg/injection, schedule: Q04DX003 (ip), vehicle: saline sonified 96 % of control

CC(=O)Oc1ccc2c3c(cccc13)CC2
inactive: [7] 98 % of control | [8] 98 % of control | [9] 98 % of control

CC(C)C(=O)/C=C/c1ccccc1
inactive: [7] 102 % of control | [8] 103 % of control | [9] 102 % of control

Cc1ccc(C)c(OC(=O)Nc2cccc3ccccc23)c1
inactive: [2] 91 % of control | [10] 91 % of control | [3] 91 % of control

Clc1ccc(Br)c2c1CCC2
inactive: endpoint: mean survival time, dose: 100.0 mg/kg/injection, schedule: Q04DX003 (ip), vehicle: acetone 101 % of control | endpoint: mean survival time, dose: 200.0 mg/kg/injection, schedule: Q04DX003 (ip), vehicle: acetone 100 % of control

[CH3][Sb]([CH3])([CH3])([O]C(=O)CBr)[O]C(=O)CBr
inactive: [11] 102 % of control | [12] 100 % of control | endpoint: mean survival time, dose: 50.0 mg/kg/injection, schedule: Q01DX009 (ip), vehicle: saline with Tween-80 96 % of control

CCCCNC(=O)Nc1ccc(C(=O)OCC(C)C)cc1
inactive: [4] 94 % of control | [7] 108 % of control | [5] 91 % of control | [8] 94 % of control | [6] 90 % of control | [9] 90 % of control

O=C(O)CC(c1ccccc1)C(CC(=O)O)c1ccccc1.[NH-]C1CCCCC1[NH-].[Pt+2] (stereo not drawn)
inactive: endpoint: median survival time, dose: 3.12 mg/kg/injection, schedule: Q04DX003 (ip), vehicle: saline with Tween-80 107 % of control | endpoint: median survival time, dose: 3.12 mg/kg/injection, schedule: Q04DX003 (ip), vehicle: saline 105 % of control | endpoint: median survival time, dose: 6.25 mg/kg/injection, schedule: Q04DX003 (ip), vehicle: saline with Tween-80 111 % of control | endpoint: median survival time, dose: 6.25 mg/kg/injection, schedule: Q04DX003 (ip), vehicle: saline 102 % of control | endpoint: median survival time, dose: 12.5 mg/kg/injection, schedule: Q04DX003 (ip), vehicle: saline with Tween-80 102 % of control | endpoint: median survival time, dose: 12.5 mg/kg/injection, schedule: Q04DX003 (ip), vehicle: saline 103 % of control | endpoint: median survival time, dose: 25.0 mg/kg/injection, schedule: Q04DX003 (ip), vehicle: saline with Tween-80 111 % of control | endpoint: median survival time, dose: 25.0 mg/kg/injection, schedule: Q04DX003 (ip), vehicle: saline 110 % of control | endpoint: median survival time, dose: 50.0 mg/kg/injection, schedule: Q04DX003 (ip), vehicle: saline with Tween-80 123 % of control | endpoint: median survival time, dose: 50.0 mg/kg/injection, schedule: Q04DX003 (ip), vehicle: saline 110 % of control | endpoint: median survival time, dose: 100.0 mg/kg/injection, schedule: Q04DX003 (ip), vehicle: saline 121 % of control

CSC(=NC#N)SC
inactive: endpoint: mean survival time, dose: 3.13 mg/kg/injection, schedule: Q01DX001 (ip), vehicle: Klucel (hydroxypropylcellulose) (HPC) 101 % of control | endpoint: mean survival time, dose: 6.25 mg/kg/injection, schedule: Q01DX001 (ip), vehicle: Klucel (hydroxypropylcellulose) (HPC) 104 % of control

[Cl][Pt][Cl].c1ccc([SeH]c2ccccc2)cc1.c1ccc([SeH]c2ccccc2)cc1
inactive: endpoint: mean survival time, dose: 25.0 mg/kg/injection, schedule: Q04DX003 (ip), vehicle: other 97 % of control | endpoint: mean survival time, dose: 50.0 mg/kg/injection, schedule: Q04DX003 (ip), vehicle: other 102 % of control | endpoint: mean survival time, dose: 100.0 mg/kg/injection, schedule: Q04DX003 (ip), vehicle: other 98 % of control | endpoint: mean survival time, dose: 200.0 mg/kg/injection, schedule: Q04DX003 (ip), vehicle: other 101 % of control | endpoint: mean survival time, dose: 400.0 mg/kg/injection, schedule: Q04DX003 (ip), vehicle: other 100 % of control

COc1cc(OC)c(OC)cc1/C=c1\[nH]c(=O)/c(=C/c2cc(OC)c(OC)cc2OC)[nH]c1=O
inactive: endpoint: mean survival time, dose: 3.13 mg/kg/injection, schedule: Q01DX009 (ip), vehicle: saline with Tween-80 102 % of control | [13] 90 % of control | [11] 91 % of control | [8] 87 % of control

OCCSc1c(Cl)c(Cl)c(Cl)c(Cl)c1Cl
inactive: endpoint: mean survival time, dose: 25.0 mg/kg/injection, schedule: Q04DX002 (ip), vehicle: saline with Tween-80 98 % of control | endpoint: mean survival time, dose: 50.0 mg/kg/injection, schedule: Q04DX002 (ip), vehicle: saline with Tween-80 95 % of control | [2] 115 % of control | [3] 90 % of control

CCC1CCCC[N-]1.CCC1CCCC[N-]1.[Cl][Pt+2][Cl] (stereo not drawn)
inactive: endpoint: mean survival time, dose: 18.8 mg/kg/injection, schedule: Q04DX003 (ip), vehicle: saline with Tween-80 106 % of control | endpoint: mean survival time, dose: 37.5 mg/kg/injection, schedule: Q04DX003 (ip), vehicle: saline with Tween-80 100 % of control | endpoint: mean survival time, dose: 75.0 mg/kg/injection, schedule: Q04DX003 (ip), vehicle: saline with Tween-80 91 % of control | endpoint: mean survival time, dose: 150.0 mg/kg/injection, schedule: Q04DX003 (ip), vehicle: saline with Tween-80 91 % of control | endpoint: mean survival time, dose: 300.0 mg/kg/injection, schedule: Q04DX003 (ip), vehicle: saline with Tween-80 88 % of control

COc1cccc2c1C(=O)c1c(O)c3c(c(O)c1C2=O)C[C@@](O)(/C(C)=N/NC(=O)c1ccc(-c2ccccc2)cc1)C[C@@H]3OC1CC(N)C(O)C(C)O1 (stereo partly drawn)
inactive: endpoint: mean survival time, dose: 0.06 mg/kg/injection, schedule: Q01DX009 (ip), vehicle: water 104 % of control | endpoint: mean survival time, dose: 0.13 mg/kg/injection, schedule: Q01DX009 (ip), vehicle: water 103 % of control | endpoint: mean survival time, dose: 0.25 mg/kg/injection, schedule: Q01DX009 (ip), vehicle: water 114 % of control | endpoint: mean survival time, dose: 0.5 mg/kg/injection, schedule: Q01DX009 (ip), vehicle: water 117 % of control | endpoint: mean survival time, dose: 1.0 mg/kg/injection, schedule: Q01DX009 (ip), vehicle: water 115 % of control | endpoint: mean survival time, dose: 2.0 mg/kg/injection, schedule: Q01DX009 (ip), vehicle: water 122 % of control | endpoint: mean survival time, dose: 4.0 mg/kg/injection, schedule: Q01DX009 (ip), vehicle: water 111 % of control | endpoint: mean survival time, dose: 8.0 mg/kg/injection, schedule: Q01DX009 (ip), vehicle: water 117 % of control | endpoint: mean survival time, dose: 16.0 mg/kg/injection, schedule: Q01DX009 (ip), vehicle: water 88 % of control

CC(C)(O)C1CC2C=CC1C2 (stereo not drawn)
inactive: [2] 98 % of control | [10] 102 % of control | [3] 94 % of control

O=[N+]([O-])/C(=C/c1ccccc1)c1ccccc1
inactive: [13] 107 % of control | endpoint: mean survival time, dose: 6.25 mg/kg/injection, schedule: Q04DX003 (ip), vehicle: saline with Tween-80 101 % of control | [11] 105 % of control | [1] 97 % of control | [12] 103 % of control | endpoint: mean survival time, dose: 25.0 mg/kg/injection, schedule: Q04DX003 (ip), vehicle: saline with Tween-80 101 % of control

Cc1ccc2ccccc2[n+]1[O-]
inactive: [2] 111 % of control
